Source: patent US20260157369A1, “COMPOSITIONS CONTAINING PEROXYACID TO INHIBIT GROWTH OF SPORE-PRODUCING ORGANISMS IN ANIMAL FEED AND RELATED METHODS” (KEMIN INDUSTRIES, INC., priority 2024, published 2026)
Values after ≈ are worked out from the molar mass of the structure shown. Like-named read-outs stand apart in the source and are kept apart here. Marks after values point to notes of the source that are not given here.

What was measured:
[1] = tested on: Aspergillus niger ATCC 24126; test: Well diffusion assay (zone of inhibition); format: cell-based; conditions: for zone of inhibition at 175000 µM / zone of inhibition at 350000 µM: Aspergillus niger, read-out: Zone of inhibition, Average ± standard deviation
[2] = tested on: Penicillium chrysogenum Thom ATCC 48908; test: Well diffusion assay (zone of inhibition); format: cell-based; conditions: for zone of inhibition at 175000 µM / zone of inhibition at 350000 µM: Penicillium chrysogenum, read-out: Zone of inhibition, Average ± standard deviation
A. niger = test: Fungicidal effect in mold suspension, one hour treatment, DRBC plating; format: cell-based, Aspergillus niger; conditions: for A. niger count, Average ± standard deviation: n = 3
Procedure: Preparation of mold suspension. Aspergillus niger ATCC 24126 and Penicillium chrysogenum Thom ATCC 48908 were purchased from American Type Culture Collection (ATCC). The strains were stored at −80° C. in glycerol. Prior to test, both strains were revived by streaking a loopful of culture onto DRBC (i.e., dichloran rose-bengal chloramphenicol (CM1148B; Thermo Scientific Oxoid) prepared as per recommended by supplier) with 72 hours incubation at 25° C. The three-days old mold culture lawn was diluted in phosphate buffer (0.30 mM; pH 7.2) to obtain a mold suspension of ca. 10^6 CFU/mL. The colony count of the suspension was determined through conventional plating method using DRBC agar at the appropriate dilution. Briefly, the mold suspension was diluted to the appropriate dilution with phosphate buffer (0.30 mM; pH 7.2). Upon dilution, 100 μL of the diluted mold suspension was spread onto the DRBC agar. After which, the plates were incubated at 25° C. for five days prior to counting. Tests were carried out in triplicates.
Fungicidal effect of PPA against A. niger. The fungicidal effect of PPA in solution was evaluated in comparison to propionic acid and hydrogen peroxide. To serve as a positive control and comparison point, propionic acid, was tested at two concentrations, 1500 and 3000 ppm, equivalent to 0.02 and 0.04 mol/L. On the other hand, PPA was tested at a single concentration of 0.02 mol/L. To evaluate the effect of hydrogen peroxide, hydrogen peroxide was also included as one of the treatment groups. Hydrogen peroxide was tested at 2.43% w/w. The concentration of hydrogen peroxide to be tested is calculated based on the equivalent amount present in 0.02 mol/L of PPA, which is the sum of hydrogen peroxide already present and from the potential breakdown of PPA. A 900 μL of mold suspension (of c.a. 10^6 CFU/mL prepared in 0.9% sodium chloride) was treated with 100 μL of the test solutions (prepared in sterile water) for one hour.
After one hour, the treatment solutions were neutralized with 2 mL of sodium thiosulphate and 7 mL of phosphate buffer (0.3 mM; pH 7.2). The solution was at 10-1 dilution. Subsequently the solution was further diluted up to 10-5 with phosphate buffer. The mold count for each treatment was determined through conventional plating method using DRBC agar. Test was conducted in triplicates. Controls were prepared with i) 100 μL of sterile water instead of test solutions and ii) 900 μL of 0.9% sodium chlorine instead of mold suspension and 100 μL of sterile water instead of test solutions.

[3] = tested on: Aspergillus niger isolate; test: Minimum fungicidal concentration (MFC); format: cell-based; conditions: for MFC: Aspergillus niger, read-out: Minimum fungicidal concentration
[4] = tested on: mold in naturally contaminated feed for laying hens; test: Mold counts in naturally contaminated laying hen feed, 7 days; conditions: 2500 ppm peroxyacid on feed, 7 days at 25° C.
Procedure: PPA acid and peracetic acid stock solutions were provided at a concentration of 20% peroxyacid. The treatment solutions were diluted to the correct concentration with ASTM Type II water before application of the treatments. Feed for laying hens that is naturally contaminated with mold was used for the study. The initial mold count of the feed was log 4.66 cfu/g. For each treatment, 100 g of feed was treated with 1.5 ml of the diluted PPA, peracetic acid or a 1:1 mix of PPA acid and peracetic acid, resulting in a final concentration of 2500 ppm of peroxyacid on the feed. The negative control treatment was treated with 1.5 ml of water. The feed was kept for 7 days at 25° C. before analysis.
Triplicate 5 g feed samples from each treatment were taken and tested for molds. Each sample was mixed vigorously with 0.1% peptone water 30 s and then a 0.1 ml aliquot of the sample was plated on DRBC agar and incubated upright in a 25° C. incubator for 5 days before counting.

Aspergillus niger = conditions: cited from earlier work
Penicillium vericulosum = conditions: cited from earlier work
[5] = tested on: Aspergillus spp., Penicillium spp, and Fusarium spp.; conditions: Higgins et al. 1999; cited from earlier work
[6] = ATCC48908, 0.175 mol/L active, 72 hours, n = 3
[7] = ATCC48908, 0.350 mol/L active, 72 hours, n = 3
[8] = 48 hours at 25° C., then DRBC plate 5 days at 25° C.
[9] = 0.175 mol/L active, 72 hours, n = 3
[10] = 0.350 mol/L active, 72 hours, n = 3

Q: For `OO` [Hydrogen peroxide], which “Zone of inhibition, Average ± standard deviation” value ([1]; 0.3% v/v, 72 hours, n = 3) is on record?
A: 8.00 ± 0.00^b mm

Q: What about the “Zone of inhibition, Average ± standard deviation” value ([1]; 0.6% v/v, 72 hours, n = 3) of the same molecule?
A: 9.42 ± 0.16^bc mm

Q: And the “Zone of inhibition, Average ± standard deviation” value ([1]; 1.0% v/v, 72 hours, n = 3)?
A: 10.93 ± 0.31^bc mm

Q: What about the “Zone of inhibition, Average ± standard deviation” value ([2]; 0.3% v/v, 72 hours, n = 3) of the same molecule?
A: 17.10 ± 0.05^cd mm

Q: What about the “Zone of inhibition, Average ± standard deviation” value ([2]; 0.6% v/v, 72 hours, n = 3) of the same molecule?
A: 19.32 ± 0.76^de mm

Q: What about the “Zone of inhibition, Average ± standard deviation” value ([2]; 1.0% v/v, 72 hours, n = 3) of the same molecule?
A: 22.08 ± 0.34d^ef mm

Q: What about the “reduction of A. niger count” value (A. niger; 2.43%) of the same molecule?
A: approximately 1.2 log CFU/mL

Q: And the “A. niger count, Average ± standard deviation” value (A. niger; 2.43% v/v)?
A: 4.75 ± 0.13^b log CFU/mL

Q: Which results are given for `CC(=O)O` [Acetic acid]?
A: zone of inhibition at 175000 µM [2, 6]: 8.97 ± 0.55 mm; zone of inhibition at 350000 µM [2, 7]: 10.9 ± 0.75 mm; MFC [3, 8]: > 5000 µg/mL

Q: What does the source list for `CCC(=O)OO` [PPA, perpropionic acid]?
A: Zone of inhibition, Average ± standard deviation [1, 9]: 16.42 ± 2.19^d mm; Zone of inhibition, Average ± standard deviation [1, 10]: 25.67 ± 2.05^e mm; Zone of inhibition, Average ± standard deviation [2, 9]: 23.80 ± 0.58^ef mm; Zone of inhibition, Average ± standard deviation [2, 10]: 35.45 ± 4.55^g mm; mold counts seven days after treatment versus control [4]: not significantly different from the control treatment; reduction of A. niger count (A. niger; 0.02 mol/L): at least 4 log CFU/mL; Minimum fungicidal concentration [3, 8]: 500 ppm; times more effective in killing mold than propionic acid ([3]; from the MFC study): at least 5 times

Q: With `CCC(=O)O` [Propionic acid] as the molecule, how does the “concentration capable of inhibiting” value (Aspergillus niger) read?
A: 1000-2000 ppm

Q: And the zone of inhibition at 175000 µM ([1]; ATCC24126, 0.175 mol/L active, 72 hours, n = 3)?
A: 9.42 ± 0.66 mm

Q: What about the zone of inhibition at 350000 µM ([1]; ATCC24126, 0.350 mol/L active, 72 hours, n = 3) of the same molecule?
A: 12.12 ± 0.03 mm

Q: And the zone of inhibition at 175000 µM [2, 6]?
A: 9.15 ± 0.45 mm

Q: What about the zone of inhibition at 350000 µM [2, 7] of the same molecule?
A: 12.1 ± 0.43 mm

Q: And the “concentration capable of inhibiting” value (Penicillium vericulosum)?
A: 1000-2000 ppm

Q: And the “reduction of A. niger count” value (A. niger; 0.02 mol/L)?
A: no count reduction

Q: What about the “A. niger count, Average ± standard deviation” value (A. niger; 0.02 mol/L) of the same molecule?
A: 6.01 ± 0.08^c log CFU/mL

Q: What about the fungicidal effect (A. niger; 0.04 mol/L (3000 ppm)) of the same molecule?
A: no fungicidal effect

Q: What about the “A. niger count, Average ± standard deviation” value (A. niger; 0.04 mol/L) of the same molecule?
A: 6.08 ± 0.11^c log CFU/mL

Q: And the Minimum fungicidal concentration [3, 8]?
A: >5000 ppm

Q: And the “concentration for complete inhibition” value [5]?
A: lower than 0.35%

Q: Which MFC [3, 8] does the source give for `CCCC(=O)O` [Butyric acid] here?
A: 5000 µg/mL (≈ 56.7 mM)

Q: Which zone of inhibition at 175000 µM ([1]; ATCC24126, 72 h) does the source give for `CC(=O)OO` [Peracetic acid] here?
A: 16 ± 0.8 mm

Q: What about the zone of inhibition at 350000 µM ([1]; ATCC24126, 72 h) of the same molecule?
A: 24.7 ± 2.04 mm

Q: And the zone of inhibition at 175000 µM ([2]; ATCC48908, 72 h)?
A: 24.1 ± 0.33 mm

Q: And the zone of inhibition at 350000 µM ([2]; ATCC48908, 72 h)?
A: 36 ± 3.8 mm

Q: What about the “mold counts seven days after treatment versus control” value [4] of the same molecule?
A: not significantly different from the control treatment

Q: What about the MFC [3] of the same molecule?
A: 1000 µg/mL (≈ 13.1 mM)
